PubChem BioAssay (NCI)
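Compound exposure: 48 hours, 5 concentrations, 96-well plates. Definition used: TGI = concentration required for complete inhibition of growth.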

Tests used:
Assay in all cases: NCI-60 cell line screen, 48 h
MDA-MB-231 breast = system: MDA-MB-231 breast
COLO 205 colon = system: COLO 205 colon
HCT-116 colon = system: HCT-116 colon
KM12 colon = system: KM12 colon
K-562 leukemia = system: K-562 leukemia
MOLT-4 leukemia = system: MOLT-4 leukemia
A498 renal = system: A498 renal
HS 578T breast = system: HS 578T breast
LOX IMVI melanoma = system: LOX IMVI melanoma
HL-60(TB) leukemia = system: HL-60(TB) leukemia
NCI-H226 lung = system: NCI-H226 lung
NCI-H522 lung = system: NCI-H522 lung
SN12C renal = system: SN12C renal

SMILES | TGI (MDA-MB-231 breast) | TGI (COLO 205 colon) | TGI (HCT-116 colon) | TGI (KM12 colon) | TGI (K-562 leukemia) | TGI (MOLT-4 leukemia) | TGI (A498 renal) | TGI (HS 578T breast) | TGI (LOX IMVI melanoma) | TGI (HL-60(TB) leukemia) | TGI (NCI-H226 lung) | TGI (NCI-H522 lung) | TGI (SN12C renal)
COC(=O)c1ccc2n1C1CC3CC(CC2C3)C1 | > 100 µM | > 100 µM | > 100 µM | > 100 µM | > 100 µM | > 100 µM | > 100 µM | > 100 µM | > 100 µM | 54.7 µM | > 100 µM | > 100 µM | > 100 µM
CO/N=C1\CCC2(O)C3Cc4ccc(O)c5c4C2(CCN3CC2CC2)[C@H]1O5 (stereo partly drawn) | > 100 µM | > 100 µM | > 100 µM | > 100 µM | > 100 µM | > 100 µM | > 100 µM | > 100 µM | > 100 µM | > 100 µM | > 100 µM | > 100 µM | > 100 µM
C=C(C)CCC1CCCCC(CN(C)C)C1=O (stereo not drawn) | > 100 µM | > 100 µM | > 100 µM | > 100 µM | > 100 µM | > 100 µM | > 100 µM | > 100 µM | > 100 µM | > 100 µM | > 100 µM | 27.2 µM | > 100 µM
O=[N+]([O-])CC(SCc1ccccc1)c1ccc2c(c1)OCO2 (stereo not drawn) | 25.6 µM | 21.1 µM | 4.46 µM | 19.1 µM | 4.19 µM | 21.1 µM | 18.8 µM | 18.2 µM | 3.39 µM | 3.68 µM | 23.2 µM | 28.3 µM | 25.7 µM
NC1CC2C3CCC2C1C3=O (stereo not drawn) | > 100 µM | > 100 µM | > 100 µM | > 100 µM | > 100 µM | > 100 µM | > 100 µM | > 100 µM | > 100 µM | > 100 µM | > 100 µM | > 100 µM | > 100 µM
Cc1cc(C)c2c(n1)S(=O)(=O)N(CCCN1CCN(c3cccc(C(F)(F)F)c3)CC1)/C(=C(\O)c1ccccc1)C2=O | 71.8 µM | 14.7 µM | 18.3 µM | 27 µM | > 100 µM | 10.8 µM | > 100 µM | > 100 µM | 11.3 µM | 8.97 µM | 7.92 µM | 88.9 µM | > 100 µM
